Test results: patent publication US20240287076A1, “COMPOUNDS FOR TARGETING DEGRADATION OF BRUTON'S TYROSINE KINASE” (BIOGEN MA INC., priority 2021, published 2024)

Target: T1, BTK (Homo sapiens, UniProt Q06187)
T1 construct: The GM01501.3 cell line endogenously expresses BTK with a HiBiT fusion tag via CRISPR knock-in at its C-terminal region; endogenous in cells; host or cells: GM01501.3 (GM01501 cells engineered by CRISPR knock-in of HiBiT at the BTK locus)
Test: BTK degradation assay using the HiBiT Method (Nano-Glo HiBiT Lytic Assay, GM01501.3 cells)
Format: cell-based
Conditions: HiBiT Degradation on GM01501.3 BTK @ 6 hours
Outline: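 CRISPR knock-in GM01501.3 cells expressing endogenous BTK with C-terminal HiBiT tag, treated 6 h at 37 °C with compounds, 11-point half-log titration from 10 μM top, duplicates. Remaining BTK quantified by Nano-Glo HiBiT lytic luminescence versus DMSO controls; DC50 reported.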

T1 sequence (Q06187 whole entry, the tested form may be a part): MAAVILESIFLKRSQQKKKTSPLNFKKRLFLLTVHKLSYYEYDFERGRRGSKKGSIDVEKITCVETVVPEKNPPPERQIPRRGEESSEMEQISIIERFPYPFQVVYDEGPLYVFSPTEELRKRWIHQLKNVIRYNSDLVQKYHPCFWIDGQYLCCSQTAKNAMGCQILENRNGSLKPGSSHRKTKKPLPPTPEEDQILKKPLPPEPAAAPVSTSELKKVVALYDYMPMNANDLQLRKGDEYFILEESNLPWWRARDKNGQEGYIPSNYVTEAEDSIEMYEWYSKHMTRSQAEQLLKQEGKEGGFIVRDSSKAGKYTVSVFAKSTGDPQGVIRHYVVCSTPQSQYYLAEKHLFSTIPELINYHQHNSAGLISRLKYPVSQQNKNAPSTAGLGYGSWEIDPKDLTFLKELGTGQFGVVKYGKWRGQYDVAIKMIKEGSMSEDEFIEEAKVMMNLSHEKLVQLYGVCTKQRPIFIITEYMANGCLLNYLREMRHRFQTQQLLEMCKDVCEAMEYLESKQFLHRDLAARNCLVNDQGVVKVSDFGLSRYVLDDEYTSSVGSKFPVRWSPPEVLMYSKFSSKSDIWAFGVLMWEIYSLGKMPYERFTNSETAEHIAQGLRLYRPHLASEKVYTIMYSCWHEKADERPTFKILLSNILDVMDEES

Structure (SMILES) | DC50 [µM]
Cc1cc(-c2ncnn3cc(-c4ccc(C(=O)Nc5cccc6c5CCN(C5CCC(=O)NC5=O)C6)cc4)cc23)ccc1CNC(=O)c1noc(C(C)(C)C)n1 (stereo not drawn) [Example 194, 5-(tert-butyl)-N-(4-(6-(4-((2-(2,6-dioxopiperidin-3-yl)-1,2,3,4-tetrahydroisoquinolin-5-yl)carbamoyl)phenyl)pyrrolo[2,1-f][1,2,4]triazin-4-yl)-2-methylbenzyl)-1,2,4-oxadiazole-3-carboxamide] | < 0.1
Cc1cc(-c2ncnn3cc(-c4ccc(CN5CCC(c6ccc(NC7CCC(=O)NC7=O)cc6)CC5)cc4C)cc23)ccc1CNC(=O)c1noc(C(C)(C)C)n1 (stereo not drawn) [Example 17, 5-tert-butyl-N-[[4-[6-[4-[[4-[4-[(2,6-dioxo-3-piperidyl)amino]phenyl]-1-piperidyl]methyl]-2-methyl-phenyl]pyrrolo[2,1-f][1,2,4]triazin-4-yl]-2-methyl-phenyl]methyl]-1,2,4-oxadiazole-3-carboxamide] | < 0.1
Cc1cc(-c2ncnn3cc(-c4cc(CN5CCC(c6ccc(C7CCC(=O)NC7=O)cc6)CC5)ccn4)cc23)ccc1CNC(=O)c1noc(C(C)(C)C)n1 (stereo not drawn) [Example 216, 5-(tert-butyl)-N-(4-(6-(4-((4-(4-(2,6-dioxopiperidin-3-yl)phenyl)piperidin-1-yl)methyl)pyridin-2-yl)pyrrolo[2,1-f][1,2,4]triazin-4-yl)-2-methylbenzyl)-1,2,4-oxadiazole-3-carboxamide] | < 0.1
Cc1cc(-c2ncnn3cc(CCN4CCC(c5ccc(C6CCC(=O)NC6=O)cc5)C(F)(F)C4)cc23)ccc1CNC(=O)c1noc(C(C)(C)C)n1 (stereo not drawn) [Example 119, 5-tert-butyl-N-[[4-[6-[2-[4-[4-(2,6-dioxo-3-piperidyl)phenyl]-3,3-difluoro-1-piperidyl]ethyl]pyrrolo[2,1-f][1,2,4]triazin-4-yl]-2-methyl-phenyl]methyl]-1,2,4-oxadiazole-3-carboxamide] | < 0.1
CC(C)(C)OC1CN(C(=O)NCc2ccc(-c3ncnn4cc(-c5ccc(CN6CCC(c7ccc(NC8CCC(=O)NC8=O)cc7)CC6)c(F)c5)cc34)cc2F)C1 (stereo not drawn) [Example 221, 3-(tert-butoxy)-N-(4-(6-(4-((4-(4-((2,6-dioxopiperidin-3-yl)amino)phenyl)piperidin-1-yl)methyl)-3-fluorophenyl)pyrrolo[2,1-f][1,2,4]triazin-4-yl)-2-fluorobenzyl)azetidine-1-carboxamide] | < 0.1
Cc1cc(-c2ncnn3cc(CCCCN4CCC(c5ccc6c(N7CCC(=O)NC7=O)nn(C)c6c5)C(F)(F)C4)cc23)ccc1CNC(=O)c1noc(C(C)(C)C)n1 (stereo not drawn) [Example 283, 5-(tert-butyl)-N-(4-(6-(4-(4-(3-(2,4-dioxotetrahydropyrimidin-1(2H)-yl)-1-methyl-1H-indazol-6-yl)-3,3-difluoropiperidin-1-yl)butyl)pyrrolo[2,1-f][1,2,4]triazin-4-yl)-2-methylbenzyl)-1,2,4-oxadiazole-3-carboxamide] | < 0.1
Cc1cc(-c2ncnn3cc(N4CCN(C(=O)CCCCC5CCN(C(=O)c6ccc(OC7CCC(=O)NC7=O)cc6)CC5)CC4)cc23)ccc1CNC(=O)c1noc(C(C)(C)C)n1 (stereo not drawn) [Example 182, 5-(tert-butyl)-N-(4-(6-(4-(5-(1-(4-((2,6-dioxopiperidin-3-yl)oxy)benzoyl)piperidin-4-yl)pentanoyl)piperazin-1-yl)pyrrolo[2,1-f][1,2,4]triazin-4-yl)-2-methylbenzyl)-1,2,4-oxadiazole-3-carboxamide] | < 0.1
Cc1cc(-c2ncnn3cc(-c4nccc(CN5CCC(c6ccc(C7CCC(=O)NC7=O)cc6)CC5)n4)cc23)ccc1CNC(=O)c1noc(C(C)(C)C)n1 (stereo not drawn) [Example 215, 5-(tert-butyl)-N-(4-(6-(4-((4-(4-(2,6-dioxopiperidin-3-yl)phenyl)piperidin-1-yl)methyl)pyrimidin-2-yl)pyrrolo [2,1-f][1,2,4]triazin-4-yl)-2-methylbenzyl)-1,2,4-oxadiazole-3-carboxamide] | < 0.1
Cc1cc(-c2ncnn3cc(-c4ccc(CN5CCC(c6ccc(NC7CCC(=O)NC7=O)c(F)c6)CC5)cc4)cc23)ccc1CNC(=O)c1noc(C(C)(C)C)n1 (stereo not drawn) [Example 18, 5-tert-butyl-N-[[4-[6-[4-[[4-[4-[(2,6-dioxo-3-piperidyl)amino]-3-fluoro-phenyl]-1-piperidyl]methyl]phenyl]pyrrolo [2,1-f][1,2,4]triazin-4-yl]-2-methyl-phenyl]methyl]-1,2,4-oxadiazole-3-carboxamide] | < 0.1

Now from value to compound:

DC50 [µM] | Structure (SMILES)
< 0.1 | Cc1cc(-c2ncnn3cc(CCCCN4CCC(c5ccc6c(N7CCC(=O)NC7=O)nn(C)c6c5)CC4)cc23)ccc1CNC(=O)c1noc(C(C)(C)C)n1 [Example 133, 5-tert-butyl-N-[[4-[6-[4-[4-[3-(2,4-dioxohexahydropyrimidin-1-yl)-1-methyl-indazol-6-yl]-1-piperidyl]butyl]pyrrolo[2,1-f][1,2,4]triazin-4-yl]-2-methyl-phenyl]methyl]-1,2,4-oxadiazole-3-carboxamide]
> 1 | Cc1cc(-c2ccnc3nn(CCCCN4CCC(c5ccc(NC6CCC(=O)NC6=O)cc5)CC4)cc23)ccc1CNC(=O)c1noc(C(C)(C)C)n1 (stereo not drawn) [Example 160, 5-tert-butyl-N-[[4-[2-[4-[4-[4-[(2,6-dioxo-3-piperidyl)amino]phenyl]-1-piperidyl]butyl]pyrazolo[3,4-b]pyridin-4-yl]-2-methyl-phenyl]methyl]-1,2,4-oxadiazole-3-carboxamide]
< 0.1 | Cn1nc(N2CCC(=O)NC2=O)c2ccc(C3CCN(Cc4ccc(-c5cc6nccc(-c7ccc(CNC(=O)c8noc(C(C)(C)C)n8)c(F)c7)n6n5)cc4)CC3)cc21 [Example 164, 5-tert-butyl-N-[[4-[2-[4-[[4-[3-(2,4-dioxohexahydropyrimidin-1-yl)-1-methyl-indazol-6-yl]-1-piperidyl]methyl]phenyl]pyrazolo[1,5-a]pyrimidin-7-yl]-2-fluoro-phenyl]methyl]-1,2,4-oxadiazole-3-carboxamide]
< 0.1 | Cc1cc(-c2ncnn3cc(-c4ccc(CN5CCC(c6ccc(NC7CCC(=O)NC7=O)cc6)CC5)cc4)cc23)ccc1CNC(=O)c1ccc(C(C)(F)F)cc1 (stereo not drawn) [Example 72, 4-(1,1-difluoroethyl)-N-[[4-[6-[4-[[4-[4-[(2,6-dioxo-3-piperidyl)amino]phenyl]-1-piperidyl]methyl]phenyl]pyrrolo[2,1-f][1,2,4]triazin-4-yl]-2-methyl-phenyl]methyl]benzamide]
< 0.1 | Cc1cc(-c2ncnn3cc(-c4ccc(CN5CCOCC(n6cc(NC7CCC(=O)NC7=O)cn6)C5)cc4)cc23)ccc1CNC(=O)c1noc(C(C)(C)C)n1 (stereo not drawn) [Example 203, 5-(tert-butyl)-N-(4-(6-(4-((6-(4-((2,6-dioxopiperidin-3-yl)amino)-1H-pyrazol-1-yl)-1,4-oxazepan-4-yl)methyl)phenyl)pyrrolo[2,1-f][1,2,4]triazin-4-yl)-2-methylbenzyl)-1,2,4-oxadiazole-3-carboxamide]
< 0.1 | Cc1cc(-c2ncnn3cc(-c4ccc(CN5CCOC(c6ccc(NC7CCC(=O)NC7=O)cc6)C5)cc4)cc23)ccc1CNC(=O)c1noc(C(C)(C)C)n1 (stereo not drawn) [Example 200, 5-(tert-butyl)-N-(4-(6-(4-((2-(4-((2,6-dioxopiperidin-3-yl)amino)phenyl)morpholino)methyl)phenyl)pyrrolo[2,1-f][1,2,4]triazin-4-yl)-2-methylbenzyl)-1,2,4-oxadiazole-3-carboxamide]
< 0.1 | O=C1CCC(Nc2ccc(C3CCN(Cc4ccc(-c5cc6c(-c7ccc(CNC(=O)c8ccc(C(F)F)cc8)c(F)c7)ncnn6c5)cc4)CC3)cc2)C(=O)N1 (stereo not drawn) [Example 101, 4-(difluoromethyl)-N-[[4-[6-[4-[[4-[4-[(2,6-dioxo-3-piperidyl)amino]phenyl]-1-piperidyl]methyl]phenyl]pyrrolo[2,1-f][1,2,4]triazin-4-yl]-2-fluoro-phenyl]methyl]benzamide]
< 0.1 | CC(C)(C)c1nc(C(=O)NCc2ccc(-c3ncnn4cc(-c5ccc(CN6CCC(Cc7ccc(OC8CCC(=O)NC8=O)cc7)C6)cn5)cc34)cc2F)no1 (stereo not drawn) [Example 237, 5-(tert-butyl)-N-(4-(6-(5-((3-(4-((2,6-dioxopiperidin-3-yl)oxy)benzyl)pyrrolidin-1-yl)methyl)pyridin-2-yl)pyrrolo[2,1-f][1,2,4]triazin-4-yl)-2-fluorobenzyl)-1,2,4-oxadiazole-3-carboxamide]
< 0.1 | Cc1cc(-c2ncnn3cc(-c4ccc(CN5CCC(c6ccc(NC7CCC(=O)NC7=O)cc6)CC5)cc4)cc23)ccc1CNC(=O)c1ccc(Cl)cc1 (stereo not drawn) [Example 62, 4-chloro-N-[[4-[6-[4-[[4-[4-[(2,6-dioxo-3-piperidyl)amino]phenyl]-1-piperidyl]methyl]phenyl]pyrrolo[2,1-f][1,2,4]triazin-4-yl]-2-methyl-phenyl]methyl]benzamide]
< 0.1 | Cc1cc(-c2ncnn3cc(CC[C@@H](F)CN4CCN(c5ccc(C6CCC(=O)NC6=O)cn5)CC4)cc23)ccc1CNC(=O)c1noc(C(C)(C)C)n1 (single isomer, unassigned) [Example 287]
< 0.1 | Cc1cc(-c2ccnc3[nH]c(-c4ccc(CN5CCC(c6ccc(NC7CCC(=O)NC7=O)cc6)CC5)cc4)cc23)ccc1CNC(=O)c1noc(C(C)(C)C)n1 (stereo not drawn) [Example 161, 5-tert-butyl-N-[[4-[2-[4-[[4-[4-[(2,6-dioxo-3-piperidyl)amino]phenyl]-1-piperidyl]methyl]phenyl]-1H-pyrrolo[2,3-b]pyridin-4-yl]-2-methyl-phenyl]methyl]-1,2,4-oxadiazole-3-carboxamide]
0.1 to 0.5 | CN(Cc1ccc(-c2ncnn3cc(-c4ccc(CN5CCC(c6ccc7c(N8CCC(=O)NC8=O)nn(C)c7c6)CC5)cc4)cc23)cc1F)C(=O)c1noc(C(C)(C)C)n1 [Example 37, 5-tert-butyl-N-[[4-[6-[4-[[4-[3-(2,4-dioxohexahydropyrimidin-1-yl)-1-methyl-indazol-6-yl]-1-piperidyl]methyl]phenyl]pyrrolo[2,1-f][1,2,4]triazin-4-yl]-2-fluoro-phenyl]methyl]-N-methyl-1,2,4-oxadiazole-3-carboxamide]
